pEC50: −log10 of the molar value.
Assays:
[1] = tested on: P. falciparum 3D7 trophozoites; assay: Metabolomic fingerprint profiling LC-MS; format: cell-based, Plasmodium falciparum; design: UDP-D-glucose / ADP-D-glucose: unit not given here; conditions: for Acetyllysine / N-acetyl-L-ornithine / N-carbamoyl-L-aspartate / NADPH / dAMP / dCMP / dTDP / dTMP / dTTP / dihydroorotate / orotate / DLH / DLS/SDL/SID / PD / PEE / PVNF / 3-phosphoglycerate / ADP-D-glucose / ATP / CDP / D-sedoheptulose-1/7-phosphate / FAD / GMP / NAD+ / NADP+ / Octoluse Bisphosphate / Pyroglutamic acid / UDP-D-glucose / UDP-D-glucuronate / UDP-N-acetyl-glucosamine / UDP / UMP / UTP / a-ketoglutarate / citrate/isocitrate / cytidine / dATP / dGMP/AMP / fumarate / glucose-1/6-phosphate / glycerate / guanine / guanosine / hypoxanthine / indole / inosine / nicotinate / ornithine / phosphoenolpyruvate / pyruvate / ribose-phosphate / sarcosine/alanine / sn-glycerol-3-phosphate / succinate/methylmalonic acid / uridine / xanthosine: S2 Table Metabolomics; for Acetyllysine: metabolite Acetyllysine; for N-acetyl-L-ornithine: metabolite N-acetyl-L-ornithine; for N-carbamoyl-L-aspartate: metabolite N-carbamoyl-L-aspartate; for NADPH: metabolite NADPH; for dAMP: metabolite dAMP; for dCMP: metabolite dCMP; for dTDP: metabolite dTDP; for dTMP: metabolite dTMP; for dTTP: metabolite dTTP; for dihydroorotate: metabolite dihydroorotate; for orotate: metabolite orotate; for DLH: peptide DLH; for DLS/SDL/SID: peptide DLS/SDL/SID; for PD: peptide PD; for PEE: peptide PEE; for PVNF: peptide PVNF; for 3-phosphoglycerate: metabolite 3-phosphoglycerate; for ADP-D-glucose: metabolite ADP-D-glucose; for ATP: metabolite ATP; for CDP: metabolite CDP; for CDP / D-sedoheptulose-1/7-phosphate / GMP / Octoluse Bisphosphate / UDP / UMP / UTP / citrate/isocitrate / dGMP/AMP / fumarate / glucose-1/6-phosphate / glycerate / guanine / guanosine / inosine / pyruvate / sarcosine/alanine / succinate/methylmalonic acid / uridine / xanthosine: change in metabolite level after compound treatment; for D-sedoheptulose-1/7-phosphate: metabolite D-sedoheptulose-1/7-phosphate; for FAD: metabolite FAD; for GMP: metabolite GMP; for NAD+: metabolite NAD+; for NADP+: metabolite NADP+; for Octoluse Bisphosphate: metabolite Octoluse Bisphosphate; for Pyroglutamic acid: metabolite Pyroglutamic acid; for UDP-D-glucose: metabolite UDP-D-glucose; for UDP-D-glucuronate: metabolite UDP-D-glucuronate; for UDP-N-acetyl-glucosamine: metabolite UDP-N-acetyl-glucosamine; for UDP: metabolite UDP; for UMP: metabolite UMP; for UTP: metabolite UTP; for a-ketoglutarate: metabolite a-ketoglutarate; for citrate/isocitrate: metabolite citrate/isocitrate; for cytidine: metabolite cytidine; for dATP: metabolite dATP; for dGMP/AMP: metabolite dGMP/AMP; for fumarate: metabolite fumarate; for glucose-1/6-phosphate: metabolite glucose-1/6-phosphate; for glycerate: metabolite glycerate; for guanine: metabolite guanine; for guanosine: metabolite guanosine; for hypoxanthine: metabolite hypoxanthine; for indole: metabolite indole; for inosine: metabolite inosine; for 2_3-Diphosphoglyceric acid / 4-phosphopantothenate / 6-phospho-D-gluconate / FMN / IMP / Pyrophosphate / Sedoheptoluse bisphosphate / cyclic-AMP / glutathione disulfide / lactate / myo-inositol: metabolite level change after treatment; for nicotinate: metabolite nicotinate; for ornithine: metabolite ornithine; for phosphoenolpyruvate: metabolite phosphoenolpyruvate; for pyruvate: metabolite pyruvate; for ribose-phosphate: metabolite ribose-phosphate; for sarcosine/alanine: metabolite sarcosine/alanine; for sn-glycerol-3-phosphate: metabolite sn-glycerol-3-phosphate; for succinate/methylmalonic acid: metabolite succinate/methylmalonic acid; for uridine: metabolite uridine; for xanthosine: metabolite xanthosine
P. falciparum = assay: EC50 listed in S2 Table Metabolomics (used to set the concentration tested); format: cell-based; conditions: Plasmodium falciparum; EC50 used for Factor_XEC50 in metabolomics; read-out: EC50_nM

COc1ccccc1CNC(=O)CCn1c(=O)[nH]c2ccsc2c1=O [MMV019066]
Acetyllysine [1]: 0.07735 | N-acetyl-L-ornithine [1]: -0.0529 | N-carbamoyl-L-aspartate [1]: 0.05336 | NADPH [1]: -0.3877 | dAMP [1]: -0.3418 | dCMP [1]: -0.4851 | dTDP [1]: 0.1634 | dTMP [1]: 0.1236 | dTTP [1]: -0.2106 | dihydroorotate [1]: 0.243 | orotate [1]: -0.2 | DLH [1]: -0.2144 | DLS/SDL/SID [1]: -0.3411 | PD [1]: 0.09576 | PEE [1]: 0.0022 | PVNF [1]: -0.1895 | 3-phosphoglycerate [1]: -0.09413 | ADP-D-glucose [1]: -0.05903 | ATP [1]: -0.2412 | CDP [1]: 0.1136 | D-sedoheptulose-1/7-phosphate [1]: 0.1088 | FAD [1]: 0.05372 | GMP [1]: 0.1058 | NAD+ [1]: 0.8616 | NADP+ [1]: -0.0134 | Octoluse Bisphosphate [1]: -0.2214 | Pyroglutamic acid [1]: -0.1934 | UDP-D-glucose [1]: 0.05907 | UDP-D-glucuronate [1]: -0.137 | UDP-N-acetyl-glucosamine [1]: 0.07368 | UDP [1]: 0.06631 | UMP [1]: 0.4511 | UTP [1]: -0.2134 | a-ketoglutarate [1]: -0.0676 | citrate/isocitrate [1]: -0.2257 | cytidine [1]: 0.1038 | dATP [1]: -0.07834 | dGMP/AMP [1]: 0.0855 | fumarate [1]: 1.364 | glucose-1/6-phosphate [1]: 0.5644 | glycerate [1]: -0.201 | guanine [1]: 0.002341 | guanosine [1]: -0.12 | hypoxanthine [1]: -0.07458 | indole [1]: -0.09687 | inosine [1]: -0.05497 | 2_3-Diphosphoglyceric acid [1]: -0.2512 | 4-phosphopantothenate [1]: -0.02128 | 6-phospho-D-gluconate [1]: -0.003238 | FMN [1]: -0.1662 | IMP [1]: 0.2187 | Pyrophosphate [1]: -0.2235 | Sedoheptoluse bisphosphate [1]: -0.07937 | cyclic-AMP [1]: -0.08199 | glutathione disulfide [1]: 0.08045 | lactate [1]: -0.3675 | myo-inositol [1]: -0.05445 | nicotinate [1]: -0.03534 | ornithine [1]: 0.2934 | phosphoenolpyruvate [1]: -0.1195 | pyruvate [1]: -0.02123 | ribose-phosphate [1]: -0.1454 | sarcosine/alanine [1]: 0.007595 | sn-glycerol-3-phosphate [1]: -0.1485 | succinate/methylmalonic acid [1]: 0.2071 | uridine [1]: 0.04529 | xanthosine [1]: -0.08771 | pEC50 (P. falciparum): 6.85

COc1ccc(C=C2SC(=N)N(c3ccccc3OC)C2=O)cc1 [MMV666691]
Acetyllysine [1]: -0.06113 | N-acetyl-L-ornithine [1]: -0.04858 | N-carbamoyl-L-aspartate [1]: 3.121 | NADPH [1]: 0.04672 | dAMP [1]: -0.1913 | dCMP [1]: 0.1375 | dTDP [1]: -0.4485 | dTMP [1]: -0.268 | dTTP [1]: -0.128 | dihydroorotate [1]: 3.607 | orotate [1]: -0.9141 | DLH [1]: 0.157 | DLS/SDL/SID [1]: 0.06441 | PD [1]: 0.6447 | PEE [1]: 0.2278 | PVNF [1]: 0.06954 | 3-phosphoglycerate [1]: -0.08972 | ADP-D-glucose [1]: 0.2678 | ATP [1]: 0.4861 | CDP [1]: 0.2338 | D-sedoheptulose-1/7-phosphate [1]: 0.4395 | FAD [1]: 0.4218 | GMP [1]: -0.5619 | NAD+ [1]: 0.2782 | NADP+ [1]: 0.1223 | Octoluse Bisphosphate [1]: 0.2088 | Pyroglutamic acid [1]: -0.1274 | UDP-D-glucose [1]: 0.2576 | UDP-D-glucuronate [1]: 0.2671 | UDP-N-acetyl-glucosamine [1]: 0.2054 | UDP [1]: -0.5559 | UMP [1]: -0.8809 | UTP [1]: -0.652 | a-ketoglutarate [1]: -0.2164 | citrate/isocitrate [1]: -0.06979 | cytidine [1]: 0.2052 | dATP [1]: 0.5778 | dGMP/AMP [1]: -0.07557 | fumarate [1]: 0.7045 | glucose-1/6-phosphate [1]: 0.363 | glycerate [1]: 0.3396 | guanine [1]: 0.3707 | guanosine [1]: 0.4982 | hypoxanthine [1]: 0.09969 | indole [1]: 0.002472 | inosine [1]: 0.382 | 2_3-Diphosphoglyceric acid [1]: 0.1853 | 4-phosphopantothenate [1]: -0.1622 | 6-phospho-D-gluconate [1]: 0.4512 | FMN [1]: 0.2558 | IMP [1]: 0.07363 | Pyrophosphate [1]: 0.16 | Sedoheptoluse bisphosphate [1]: 0.2481 | cyclic-AMP [1]: 0.2139 | glutathione disulfide [1]: 0.5647 | lactate [1]: 0.06184 | myo-inositol [1]: 0.08809 | nicotinate [1]: 0.1482 | ornithine [1]: 0.1318 | phosphoenolpyruvate [1]: -0.1506 | pyruvate [1]: -0.3002 | ribose-phosphate [1]: 0.1031 | sarcosine/alanine [1]: 0.4028 | sn-glycerol-3-phosphate [1]: 0.3221 | succinate/methylmalonic acid [1]: 0.3253 | uridine [1]: -0.3469 | xanthosine [1]: 0.6937 | pEC50 (P. falciparum): 6.77
